pIC50: −log10 of the molar value.
System: HepG2 cells
Test: Test Example 2: inhibition of apolipoprotein B secretion from HepG2 cells, ELISA (also used for metabolites in Test Example 8)
Format: cell-based
Settings: Homo sapiens, 24 hours, apo B in supernatant by ELISA, read-out: Test Example 2 Inhibition of apo B secretion IC50
Method: Inhibition of Apolipoprotein B Secretion from HepG2 Cells
HepG2 cells were suspended in Dulbecco's Modified Eagle's Medium (DMEM) (containing 10% fetal bovine serum, 100 units/mL penicillin and 100 μg/mL streptomycin), and placed on a 96-well plate (4×10^4 cells/well), then incubated for 24 hours. After removal of the medium, DMEM was replaced by a medium containing a sample dissolved in DMSO or a medium containing DMSO (concentration of DMSO: 0.5%) and incubation was further performed for 24 hours, after which the supernatant was recovered, and concentration of apo B in the supernatant was assayed by Enzyme-Linked Immunosorbent Assay (ELISA)
ELISA was carried out as follows. Anti-human apo B monoclonal antibody (0.5 μg/well) diluted with a solution of sodium carbonate in sodium bicarbonate buffer (50 mL, pH 9.6) was placed in a 96-well plate for ELISA, and allowed to stand at room temperature for 15 hours. After washing the plate, a blocking solution (250 μL/well) was placed in the well, and allowed to stand at room temperature for 1.5 hours. After washing the plate, a standard and a sample (100 μL/well) were placed in the well and allowed to stand at room temperature for one hour. The standard was prepared by adjusting the concentration of the purified human apo B with the DMEM to 0 to 1000 ng/mL. After washing the plate, an anti-human apo B polyclonal antibody labeled with a horse radish peroxidase which was diluted in 1:1000 with DEME (100 μL/well), and allowed to stand at room temperature for one hour. After washing the plate, 2,2-azinobis(3-ethylbenzothiazoline-6-sulfonic acid) solution (100 μL/well) was placed in the well, and allowed to stand at room temperature for one hour. The reaction was stopped by addition of 2% oxalic acid (100 μL/well), and absorbency at 405 nm was measured. Concentration of apo B in the sample was calculated on the basis of a standard curve of the standard. Inhibition rate (%) was calculated from the assayed values in accordance with the following equation.
Inhibition rate (%)=100×(1 minus (concentration of apo B in sample group/concentration of apo B in DMSO group).
Based on the above equation, 50% inhibition concentration (IC50) was determined.
Inhibitory Activity on MTP and apo B Secretion Inhibition by Metabolites
In a similar manner to Test Examples 1 and 2, the activity of metabolites was assayed.

Row | pIC50 | SMILES
1 | 9.42 | CCOC(=O)C(COC(=O)Cc1ccc(NC(=O)c2ccccc2-c2ccc(C(F)(F)F)c(F)c2)c(C(=O)N(C)C)c1)(C(=O)OCC)c1ccccc1 [Example 2-61]
2 | 9.43 | CCOC(=O)C(COC(=O)Cc1ccc(NC(=O)c2ccccc2-c2ccc(C(F)(F)F)c(Cl)c2)c(C(=O)N(C)C)c1)(C(=O)OCC)c1ccccc1 [Example 2-62]
3 | 7.24 | CCOC(=O)C(COC(=O)Cc1cc(C(=O)N(C)C)c(NC(=O)c2ccccc2-c2ccc(C(F)(F)F)cc2)c(Cl)c1F)(C(=O)OCC)c1ccccc1 [Example 2-66]
4 | 7.37 | CCOC(=O)C(COC(=O)Cc1cc(C(=O)N(C)C)c(NC(=O)c2ccccc2-c2ccc(C(F)(F)F)cc2)c(Br)c1F)(C(=O)OCC)c1ccccc1 [Example 2-67]
5 | 8.65 | CCOC(=O)C(COC(=O)Cc1ccc(NC(=O)c2ccccc2-c2ccc(C(F)(F)F)cc2)c(C(=O)N(C)C)c1)(C(=O)OCC)c1ccccc1C [Example 2-68]
6 | 9.04 | CCOC(=O)C(COC(=O)Cc1ccc(NC(=O)c2ccccc2-c2ccc(C(F)(F)F)cc2)c(C(=O)N(C)C)c1)(C(=O)OCC)c1cccc(C)c1 [Example 2-69]
7 | 8.63 | CCOC(=O)C(COC(=O)Cc1ccc(NC(=O)c2ccccc2-c2ccc(C(F)(F)F)cc2)c(C(=O)N(C)C)c1)(C(=O)OCC)c1ccc(C)cc1 [Example 2-70]
8 | 9.27 | CCOC(=O)C(COC(=O)Cc1ccc(NC(=O)c2ccccc2-c2ccc(C(F)(F)F)cc2)c(C(=O)N(C)C)c1)(C(=O)OCC)c1ccccc1Cl [Example 2-71]
9 | 9.02 | CCOC(=O)C(COC(=O)Cc1ccc(NC(=O)c2ccccc2-c2ccc(C(F)(F)F)cc2)c(C(=O)N(C)C)c1)(C(=O)OCC)c1cccc(Cl)c1 [Example 2-72]
10 | 8.53 | CCOC(=O)C(COC(=O)Cc1ccc(NC(=O)c2ccccc2-c2ccc(C(F)(F)F)cc2)c(C(=O)N(C)C)c1)(C(=O)OCC)c1ccc(Cl)cc1 [Example 2-73]
11 | 9.08 | CCOC(=O)CC(COC(=O)Cc1ccc(NC(=O)c2ccccc2-c2ccc(C(F)(F)F)cc2)c(C(=O)N(C)C)c1)(C(=O)OCC)c1ccccc1 (stereo not drawn) [Example 2-74]
12 | 7.90 | CCOC(=O)C(COC(=O)Cc1ccc(NC(=O)c2ccccc2-c2ccc(C(F)(F)F)cc2)c(C(=O)N(C)C)c1)(C(=O)OCC)c1ccccc1OC [Example 2-75]
13 | 9.07 | CCOC(=O)C(COC(=O)Cc1ccc(NC(=O)c2ccccc2-c2ccc(C(F)(F)F)cc2)c(C(=O)N(C)C)c1)(C(=O)OCC)c1cccc(OC)c1 [Example 2-76]
14 | 8.56 | CCOC(=O)C(COC(=O)Cc1ccc(NC(=O)c2ccccc2-c2ccc(C(F)(F)F)cc2)c(C(=O)N(C)C)c1)(C(=O)OCC)c1ccc(OC)cc1 [Example 2-77]
15 | 9.85 | CCOC(=O)C(COC(=O)Cc1ccc(NC(=O)c2ccc(C(F)(F)F)cc2-c2ccc(C(F)(F)F)cc2)c(C(=O)N(C)C)c1)(C(=O)OCC)c1ccccc1 [Example 2-78]
16 | 8.89 | CCOC(=O)C(COC(=O)Cc1ccc(NC(=O)c2cccc(Cl)c2-c2ccc(C(F)(F)F)cc2)c(C(=O)N(C)C)c1)(C(=O)OCC)c1ccccc1 [Example 2-79]
17 | 9.10 | CCOC(=O)C(COC(=O)Cc1ccc(NC(=O)c2cccc(F)c2-c2ccc(C(F)(F)F)cc2)c(C(=O)N(C)C)c1)(C(=O)OCC)c1ccccc1 [Example 2-80]
18 | 9.02 | CCOC(=O)C(CCOC(=O)Cc1ccc(NC(=O)c2ccc(C)cc2-c2ccc(C(F)(F)F)cc2)c(C(=O)N(C)C)c1)(C(=O)OCC)c1ccccc1 [Example 2-81]
19 | 8.36 | CCOC(=O)C(COC(=O)Cc1ccc(NC(=O)c2ccc(OCC)cc2-c2ccc(C(F)(F)F)cc2)c(C(=O)N(C)C)c1)(C(=O)OCC)c1ccccc1 [Example 2-82]
20 | 8.05 | CCOC(=O)C(COC(=O)Cc1ccc(NC(=O)c2ccc(OC(C)C)cc2-c2ccc(C(F)(F)F)cc2)c(C(=O)N(C)C)c1)(C(=O)OCC)c1ccccc1 [Example 2-83]
21 | 8.70 | CCOC(=O)C(CCOC(=O)Cc1ccc(NC(=O)c2ccc(C(F)(F)F)cc2-c2ccc(C(F)(F)F)cc2)c(C(=O)N(C)C)c1)(C(=O)OCC)c1ccccc1 [Example 2-84]

From patent US7625948B2, “Ester compound and medicinal use thereof” (Japan Tobacco Inc., priority 2002, dated 2009)
